According to patent US11357749B2, “Methods for treating neutropenia” (Enzychem Lifesciences Corporation, priority 2014, dated 2022):

Key:
[1] = test system: C3; assay: C3 protein by ELISA in HMC-1 cells; type: cell-based, human; conditions: HMC-1, PLAG 1, 10 and 100 μg/mL for 2 hours, 72 hours activation with 10% FBS
Method: In a separate experiment, human mast cells (HMC-1, 1×10^5 cell/ml) are treated with PLAG of various concentrations (1, 10 and 100 μg/mL) for 2 hours. The cells are activated for 72 hours with 10% FBS (Fetal bovine serum) containing IMDM. The decrease of C3 is confirmed by ELISA analysis of the expressed protein.

[2] = test system: platelets; assay: Lipopolysaccharide-induced platelet reduction in mice; type: in vivo; conditions: 15 hours
Method: (§1) Mice are injected with 100 mg/kg phenylhydrazine (PHZ), i.p., to induce anemia and reduction of platelets. 5 mg/kg PLAG is administered to the mice orally and blood samples are taken at 3 and 13 days after. In addition, for comparison, normal mice which are not treated with phenylhydrazine are prepared as a normal group, and mice treated with PHZ and olive oil instead of PLAG are prepared as a control group. The blood samples taken from the mice are treated with 0.5 ml EDTA (Minicollect tube, Greiner bio-one, Austria) and concentration of platelet is measured using automated blood sample analyzer BC-6800 (Mindray, Shenzhen, China) by number of platelet per […] (k: 1,000).
(§2) The experiment is repeated using Tamoxifen (Tam), an anticancer agent, injected at the amount of 100 mg/kg, or lipopolysaccharide (LPS), an inflammation inducer, at the amount of 1 mg/kg to induce platelet reduction. Platelet concentration is measured 15 hours after PLAG treatment. For comparison, olive oil and PBS are used instead of PLAG as controls, respectively for the Tamoxifen and lipopolysaccharide experiment.

[3] = test system: white blood cells and neutrophils; assay: Cyclophosphamide-induced neutropenia in mice, G-CSF with or without PLAG; type: in vivo; conditions: PLAG 25 mpk p.o. added to G-CSF 0.25 mpk i.p., cyclophosphamide-treated mice
From the text: Mice receive cyclophosphamide (100 mpk, i.p.) for a period of ten days, with or without G-CSF (0.25 mpk, i.p.) or G-CSF (0.25 mpk, i.p.) plus PLAG (25 mpk, p.o.): […]

[4] = test system: Complement 3; assay: Complement 3 activation by chemotherapeutic agents in mouse model; type: in vivo; conditions: mice, Gemcitabine, Cyclophosphamide or Tamoxifen plus PLAG
Method: The effect of PLAG for treatment of neutropenia and thrombocytopenia induced by chemotherapy (CIN) is evaluated in an animal model. Anti-cancer agents (Gemcitabine 50 mg/kg, Cyclosphosphamide 100 mg/kg, or Tamoxifen 50 mg/kg) are dosed daily for 3 weeks; PLAG is also administered 50 mg/kg daily for 3 weeks. After three weeks, neutrophils are harvested and counted with Auto Hematology Analyzer BC-5300.
It is believed that the neutropenia and thrombocytopenia of these agents and other chemotherapeutic agents may be due at least in part to a specific complement-mediated toxicity. This is seen in FIG. 6.

[5] = test system: STAT6; assay: IL-4 induced STAT6 phosphorylation, western blot in U937, A549 and Jurkat cells; type: cell-based; conditions: PLAG 0.01 to 10 μg/ml, 10 ng/ml IL-4, 15 min
Method: (§3) Dephosphorylation of STAT6 is examined using anti-phosphorylated STAT6 in U937, A549, and Jurkat cell lysates treated with PLAG concentration from 0.01 to 10 μg/ml. Phosphorylation of STAT6 is induced by treatment with 10 ng/ml of IL-4. Dephosphorylation of STAT1 is examined in the U937 cell lysate treated with PLAG (0.01 to 10 μg/ml). Phosphorylation of STAT1 is induced by 10 ng of IFN-γ treatment. Dephosphorylation of STAT1 and STAT6 is examined at 15 min after stimulation with IFN-γ and IL-4 respectively, in the PLAG pretreated cells. […] The transcriptional activity of STAT6 is decreased by the dephosphorylation of STAT6. […] No effect of PLAG on STAT1 phosphorylation is observed.

[6] = test system: platelets; assay: Tamoxifen-induced platelet reduction in mice; type: in vivo; conditions: Tam 100 mg/kg + PLAG 5 mg/kg, after 15 hours
Method: as §1, §2

[7] = test system: C3; assay: C3 expression (RT-PCR) in IL-4/TNF-α treated HMC-1 cells; type: cell-based, human; conditions: HMC-1 cells treated with IL-4 and TNF-α; PLAG 0.1 and 1 μg/mL
Method: A blood cell line, HMC-1 (human mast cell, American Type Culture Collection, ATCC, Rockville, Md.) is incubated and maintained at 37° C. under 5% CO2 humid conditions. The medium is IMDM (Life Technologies, Karlsruhe, Germany) containing 10% Fetal Calf Serum (FCS, HyClone, Logan, Utah), 2 mM […], 100 μg/ml penicillin, 100 μg/ml streptomycin (Life Technologies). The cultured HMC-1 cells (1×10^6 cell/ml) are pre-treated with 0.1 and 1 μg/mL concentration of PLAG, followed by treating with IL-4 (5 ng) and/or TNF-α (10 ng) to induce cellular activities.
The expressed C3 and its mRNA level change are observed by using RT-PCR (Reverse Transcriptase Polymerase Chain Reaction). The RT-PCR is carried out as follows: the total RNA is separated by the standard protocol and cDNA is synthesized using AccuScript High Fidelity 1st Strand cDNA Synthesis Kit (Stratagene) by the manufacturer's instructions. Two-step RT-PCR reaction is conducted using Oligo-dT primer and reverse transcriptase, pair of primer and Taq polymerase (Takara, Shiga, Japan). […] The product of PCR is separated using 1.5% agarose gel, dyed with ethidium bromide (EtBr), and visualized with Gel Doc 2000 UV trans-illuminator (Bio-Rad Laboratories, Hercules, Calif., USA), and the experimental data is analyzed using Quantity One software (Bio-Rad Laboratories).

[8] = test system: STAT1; assay: IFN-γ induced STAT1 phosphorylation, western blot in U937 cells; type: cell-based; conditions: PLAG 0.01 to 10 μg/ml, 10 ng IFN-γ, 15 min
Method: as §3

CCCCC/C=C\C/C=C\CCCCCCCC(=O)OC(COC(C)=O)COC(=O)CCCCCCCCCCCCCCC (racemic) [PLAG, 1-palmitoyl-2-linoleoyl-3-acetylglycerol]
decrease of C3 (ELISA) [1]: proportional to the concentration of PLAG | Platelet Conc. ([2]; LPS 1 mg/kg + PLAG 1 mg/kg): 450.00 k/ul | Platelet Conc. ([2]; LPS 1 mg/kg + PLAG 2 mg/kg): 553.33 k/ul | increase of WBC over G-CSF alone [3]: more than 60% | increase of neutrophils over G-CSF alone [3]: more than 70% | Complement 3 activation by chemotherapeutic agents [4]: largely blocked | IL-4 induced STAT6 phosphorylation ([5]; A549 cells): inhibited with increasing PLAG concentrations | IL-4 induced STAT6 phosphorylation ([5]; Jurkat cells): inhibited with increasing PLAG concentrations | IL-4 induced STAT6 phosphorylation ([5]; U937 cells): inhibited with increasing PLAG concentrations | Platelet Conc. [6]: 780.7 ± 195.9 k/ul | expression of C3 [7]: suppressed by PLAG on a concentration dependent basis | STAT1 phosphorylation [8]: No effect
